Assay results taken from patent US20070049564A1 (Wyeth, priority 2005, published 2007).
In brackets after ≈: the same amount, converted by molar mass. Like-named read-outs stand apart in the source and are kept apart here.

Columns and labels:
[1] = system: E. coli GC 2236; experiment: MIC, broth microdilution
[2] = system: E. coli GC 2235; experiment: MIC, broth microdilution
[3] = system: E. coli GC 2233; experiment: MIC, broth microdilution; settings: Escherichia coli, GC2233, E. coli GC 2233
[4] = system: E. coli GC 2270; experiment: MIC, broth microdilution; settings: Escherichia coli
[5] = system: E. coli GC 2271; experiment: MIC, broth microdilution; settings: Escherichia coli, GC2271, E. coli GC 2271
[6] = system: E. coli GC 3226; experiment: MIC, broth microdilution
[7] = system: E. coli GC 1073; experiment: MIC, broth microdilution
[8] = system: S. typhimurium GC 2172; experiment: MIC, broth microdilution; settings: Salmonella enterica, TYPHIMURIUM
[9] = system: S. aureus GC 1079; experiment: MIC, broth microdilution
[10] = system: S. aureus GC 6335; experiment: MIC, broth microdilution
[11] = system: S. aureus GC 6469; experiment: MIC, broth microdilution
[12] = system: E. faecalis GC 4555; experiment: MIC, broth microdilution; settings: Enterococcus faecalis
[13] = system: E. faecalis GC 2265; experiment: MIC, broth microdilution
[14] = system: E. faecium GC 4556; experiment: MIC, broth microdilution; settings: Enterococcus faecium
[15] = system: E. faecium GC 2243; experiment: MIC, broth microdilution
[16] = system: S. pyogenes GC 4563; experiment: MIC, broth microdilution
[17] = system: S. agalactiae GC 4564; experiment: MIC, broth microdilution
[18] = system: c. albicans GC 3066; experiment: MIC, broth microdilution
[19] = system: Staph.; experiment: Range of MIC for Staph. strains, including MRSA; settings: Staphylococcus aureus, MRSA
[20] = system: E. coli; experiment: Range of MIC for E. coli strains; settings: Escherichia coli
[21] = read-out: Range of MIC, Staph (Mouse Serum)
[22] = read-out: Range of MIC, Staph (Water)

CCCN(CC(=O)Nc1cc(N(C)C)c2c(c1O)C(=O)C1=C(O)[C@]3(O)C(=O)C(C(N)=O)=C(O)[C@@H](N(C)C)[C@@H]3C[C@@H]1C2)C(=O)OCC [Example 15, ethyl 2-{[(5aR,6aS,7S,10aS)-9-(aminocarbonyl)-4,7-bis(dimethylamino)-1,8,10a,11-tetrahydroxy-10,12-dioxo-5,5a,6,6a,7,10,10a,12-octahydrotetracen-2-yl]amino}-2-oxoethyl(propyl)carbamate]
MIC ([1]; Escherichia coli, GC2236, E. coli GC 2236, Mouse Serum pre-incubation): > 64 mg/L
MIC ([1]; Escherichia coli, GC2236, E. coli GC 2236, Water pre-incubation): 64 mg/L (≈ 99.4 µM)
MIC ([2]; Escherichia coli, GC2235, E. coli GC 2235, Mouse Serum pre-incubation): 32 mg/L (≈ 49.7 µM)
MIC ([2]; Escherichia coli, GC2235, E. coli GC 2235, Water pre-incubation): 32 mg/L (≈ 49.7 µM)
MIC ([3]; Mouse Serum pre-incubation): > 64 mg/L
MIC ([3]; Water pre-incubation): > 64 mg/L
MIC ([4]; GC2270, E. coli GC 2270, Mouse Serum pre-incubation): 64 mg/L (≈ 99.4 µM)
MIC ([4]; GC2270, E. coli GC 2270, Water pre-incubation): 64 mg/L (≈ 99.4 µM)
MIC ([5]; Mouse Serum pre-incubation): 64 mg/L (≈ 99.4 µM)
MIC ([5]; Water pre-incubation): 64 mg/L (≈ 99.4 µM)
MIC ([6]; Escherichia coli, GC3226, E. coli GC 3226, Mouse Serum pre-incubation): > 64 mg/L
MIC ([6]; Escherichia coli, GC3226, E. coli GC 3226, Water pre-incubation): > 64 mg/L
MIC ([7]; Escherichia coli, GC1073, E. coli GC 1073, Mouse Serum pre-incubation): > 64 mg/L
MIC ([7]; Escherichia coli, GC1073, E. coli GC 1073, Water pre-incubation): > 64 mg/L
MIC ([8]; S. typhimurium GC 2172, Mouse Serum pre-incubation): > 64 mg/L
MIC ([8]; S. typhimurium GC 2172, Water pre-incubation): > 64 mg/L
MIC ([9]; Staphylococcus aureus, GC1079, S. aureus GC 1079, Mouse Serum pre-incubation): 2 mg/L (≈ 3.11 µM)
MIC ([9]; Staphylococcus aureus, GC1079, S. aureus GC 1079, Water pre-incubation): 4 mg/L (≈ 6.21 µM)
MIC ([10]; Staphylococcus aureus, GC6335, S. aureus GC 6335, Mouse Serum pre-incubation): 4 mg/L (≈ 6.21 µM)
MIC ([10]; Staphylococcus aureus, GC6335, S. aureus GC 6335, Water pre-incubation): 4 mg/L (≈ 6.21 µM)
MIC ([11]; Staphylococcus aureus, GC6469, S. aureus GC 6469, Mouse Serum pre-incubation): 4 mg/L (≈ 6.21 µM)
MIC ([11]; Staphylococcus aureus, GC6469, S. aureus GC 6469, Water pre-incubation): 8 mg/L (≈ 12.4 µM)
MIC ([12]; GC4555, E. faecalis GC 4555, Mouse Serum pre-incubation): 4 mg/L (≈ 6.21 µM)
MIC ([12]; GC4555, E. faecalis GC 4555, Water pre-incubation): 8 mg/L (≈ 12.4 µM)
MIC ([13]; Enterococcus faecalis, GC2265, E. faecalis GC 2265, Mouse Serum pre-incubation): 8 mg/L (≈ 12.4 µM)
MIC ([13]; Enterococcus faecalis, GC2265, E. faecalis GC 2265, Water pre-incubation): 8 mg/L (≈ 12.4 µM)
MIC ([14]; GC4556, E. faecium GC 4556, Mouse Serum pre-incubation): 8 mg/L (≈ 12.4 µM)
MIC ([14]; GC4556, E. faecium GC 4556, Water pre-incubation): 8 mg/L (≈ 12.4 µM)
MIC ([15]; Enterococcus faecium, GC2243, E. faecium GC 2243, Mouse Serum pre-incubation): 8 mg/L (≈ 12.4 µM)
MIC ([15]; Enterococcus faecium, GC2243, E. faecium GC 2243, Water pre-incubation): 8 mg/L (≈ 12.4 µM)
MIC ([16]; Streptococcus pyogenes, GC4563, S. pyogenes GC 4563, Mouse Serum pre-incubation): 2 mg/L (≈ 3.11 µM)
MIC ([16]; Streptococcus pyogenes, GC4563, S. pyogenes GC 4563, Water pre-incubation): 2 mg/L (≈ 3.11 µM)
MIC ([17]; Streptococcus agalactiae, GC4564, S. agalactiae GC 4564, Mouse Serum pre-incubation): 8 mg/L (≈ 12.4 µM)
MIC ([17]; Streptococcus agalactiae, GC4564, S. agalactiae GC 4564, Water pre-incubation): 8 mg/L (≈ 12.4 µM)
MIC ([18]; Candida albicans, GC3066): > 64 mg/L
MIC ([18]; c. albicans GC 3066, Water pre-incubation): >64 UG/ML
MIC [19, 21]: 2 to 16 mg/L (≈ 3.11 to 24.9 µM)
MIC [19, 22]: 4 to 16 mg/L (≈ 6.21 to 24.9 µM)

CCCCN(CC(=O)Nc1cc(N(C)C)c2c(c1O)C(=O)C1=C(O)[C@]3(O)C(=O)C(C(N)=O)=C(O)[C@@H](N(C)C)C3CC1C2)C(=O)OCc1oc(=O)oc1C (stereo partly drawn) [Example 109, (5-methyl-2-oxo-1,3-dioxol-4-yl)methyl 2-{[(7S,10aS)-9-(aminocarbonyl)-4,7-bis(dimethylamino)-1,8,10a,11-tetrahydroxy-10,12-dioxo-5,5a,6,6a,7,10,10a,12-octahydrotetracen-2-yl]amino}-2-oxoethyl(butyl)carbamate]
MIC ([1]; Escherichia coli, GC2236, pre-incubation in mouse serum): 0.5 mg/L (≈ 0.674 µM)
MIC ([1]; Escherichia coli, GC2236, pre-incubation in water): 1 mg/L (≈ 1.35 µM)
MIC ([1]; pre-incubation in water): 2 UG/ML
MIC ([2]; Escherichia coli, GC2235, pre-incubation in mouse serum): 0.25 mg/L (≈ 0.337 µM)
MIC ([2]; Escherichia coli, GC2235, pre-incubation in water): 0.5 mg/L (≈ 0.674 µM)
MIC ([2]; pre-incubation in mouse serum): 0.50 UG/ML
MIC ([2]; pre-incubation in water): 1 UG/ML
MIC ([4]; GC2270, pre-incubation in mouse serum): 0.25 mg/L (≈ 0.337 µM)
MIC ([6]; Escherichia coli, GC3226, pre-incubation in mouse serum): 0.5 mg/L (≈ 0.674 µM)
MIC ([6]; pre-incubation in mouse serum): 1 UG/ML
MIC ([7]; Escherichia coli, GC1073, pre-incubation in mouse serum): 0.5 mg/L (≈ 0.674 µM)
MIC ([7]; pre-incubation in mouse serum): 1 UG/ML
MIC ([8]; pre-incubation in mouse serum): 4 mg/L (≈ 5.39 µM)
MIC ([8]; pre-incubation in water): 16 mg/L (≈ 21.6 µM)
MIC ([9]; Staphylococcus aureus, GC1079, pre-incubation in mouse serum): 2 mg/L (≈ 2.7 µM)
MIC ([9]; Staphylococcus aureus, GC1079, pre-incubation in water): 4 mg/L (≈ 5.39 µM)
MIC ([9]; pre-incubation in water): 8 UG/ML
MIC ([10]; Staphylococcus aureus, GC6335, pre-incubation in mouse serum): 2 mg/L (≈ 2.7 µM)
MIC ([10]; Staphylococcus aureus, GC6335, pre-incubation in water): 4 mg/L (≈ 5.39 µM)
MIC ([10]; pre-incubation in mouse serum): 1 UG/ML
MIC ([11]; Staphylococcus aureus, GC6469, pre-incubation in mouse serum): 1 mg/L (≈ 1.35 µM)
MIC ([11]; pre-incubation in mouse serum): 2 UG/ML
MIC ([12]; GC4555, pre-incubation in mouse serum): 0.5 mg/L (≈ 0.674 µM)
MIC ([12]; GC4555, pre-incubation in water): 1 mg/L (≈ 1.35 µM)
MIC ([13]; Enterococcus faecalis, GC2265, pre-incubation in mouse serum): 1 mg/L (≈ 1.35 µM)
MIC ([13]; Enterococcus faecalis, GC2265, pre-incubation in water): 2 mg/L (≈ 2.7 µM)
MIC ([13]; pre-incubation in water): 4 UG/ML
MIC ([14]; GC4556, pre-incubation in mouse serum): 1 mg/L (≈ 1.35 µM)
MIC ([14]; GC4556, pre-incubation in water): 2 mg/L (≈ 2.7 µM)
MIC ([15]; Enterococcus faecium, GC2243, pre-incubation in mouse serum): 0.5 mg/L (≈ 0.674 µM)
MIC ([15]; Enterococcus faecium, GC2243, pre-incubation in water): 0.5 mg/L (≈ 0.674 µM)
MIC ([15]; pre-incubation in water): 1 UG/ML
MIC ([16]; Streptococcus pyogenes, GC4563, pre-incubation in mouse serum): < 0.06 mg/L
MIC ([16]; pre-incubation in mouse serum): 0.12 UG/ML
MIC ([17]; Streptococcus agalactiae, GC4564, pre-incubation in mouse serum): 0.12 mg/L (≈ 0.162 µM)
MIC ([17]; Streptococcus agalactiae, GC4564, pre-incubation in water): 0.25 mg/L (≈ 0.337 µM)
MIC ([17]; pre-incubation in mouse serum): <0.06 UG/ML
MIC ([18]; Candida albicans, GC3066): > 64 mg/L
MIC ([18]; pre-incubation in water): >64 UG/ML
MIC ([20]; 20 h, read-out: Range of MIC, E. coli (Mouse Serum)): 0.25 to 1 mg/L (≈ 0.337 to 1.35 µM)
MIC ([20]; read-out: Range of MIC, E. coli (Water)): 1 to 4 mg/L (≈ 1.35 to 5.39 µM)
MIC [19, 21]: 0.5 to 2 mg/L (≈ 0.674 to 2.7 µM)
MIC [19, 22]: 4 to 8 mg/L (≈ 5.39 to 10.8 µM)
